Article PMC6905112, “CtcS, a MarR family regulator, regulates chlortetracycline biosynthesis” (BMC Microbiology, 2019)

Key:
CtcS = molecular target: T1, CtcS (Kitasatospora aureofaciens, UniProt S4S3A4); test: competitive EMSA, release of FAM-labelled ctcS-ctcR intergenic DNA probe; format: binding; details: His6-CtcS 40 ng, probe 40 ng, 20 uL, pH 8.0, 0.0015-5 mM compound
T1 sequence (S4S3A4 1-165): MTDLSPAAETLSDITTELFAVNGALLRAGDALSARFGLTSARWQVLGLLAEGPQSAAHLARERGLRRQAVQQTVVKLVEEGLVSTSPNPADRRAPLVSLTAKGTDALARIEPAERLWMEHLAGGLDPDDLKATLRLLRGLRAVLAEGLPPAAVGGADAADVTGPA

[1] = molecular target: His6-tagged recombinant CtcS (Streptomyces aureofaciens F3); test: SEC; Superdex 200 10/300 column, AKTA FPLC P-920; ovalbumin (44 kD) and lysozyme (14 kD) as standards; purified His6-tagged CtcS

| Compound | competitive EMSA, release of FAM-labelled ctcS-ctcR intergenic DNA probe (CtcS) | stoichiometry N [1] |
| --- | --- | --- |
| CN(C)[C@@H]1C(=O)C(C(N)=O)=C(O)[C@@]2(O)C(=O)C3=C(O)c4c(O)ccc(Cl)c4[C@@](C)(O)[C@H]3C[C@@H]12 [chlortetracycline] | the DNA-binding affinity of CtcS would be decreased by the presence of TC and CTC | – |
| CN(C)[C@@H]1C(=O)C(C(N)=O)=C(O)[C@@]2(O)C(=O)C3=C(O)c4c(O)cccc4[C@@](C)(O)[C@H]3C[C@@H]12 [tetracycline] | the DNA-binding affinity of CtcS would be decreased by the presence of TC and CTC | – |
| His6-tagged recombinant CtcS (natural protein) | – | 2 |
